According to ChEMBL document CHEMBL1155092, “Antibacterial activity of labdane diterpenoids from Stemodia foliosa” (2008):
In brackets after ≈: the same amount, converted by molar mass. Activity calls are given as the source filed them. The rule behind the calls is not given here.

How the values were obtained:
[1] = test system: Bacillus anthracis; test: Antimicrobial activity against Bacillus anthracis at 50 ug/ml; type: functional, organism-based
[2] = test system: Mycolicibacterium phlei; test: Antimicrobial activity against Mycobacterium phlei at 50 ug/ml; type: functional, organism-based
[3] = test system: Staphylococcus aureus; test: Antimicrobial activity against Staphylococcus aureus at 50 ug/ml; type: functional, organism-based
[4] = test system: Bacillus cereus; test: Antimicrobial activity against Bacillus cereus at 50 ug/ml; type: functional, organism-based
[5] = test system: Mycolicibacterium smegmatis; test: Antimicrobial activity against Mycobacterium smegmatis at 50 ug/ml; type: functional, organism-based
[6] = test system: Micrococcus luteus; test: Antimicrobial activity against Micrococcus luteus at 50 ug/ml; type: functional, organism-based
[7] = test system: Bacillus subtilis; test: Antimicrobial activity against Bacillus subtilis at 50 ug/ml; type: functional, organism-based
[8] = test system: Mycolicibacterium phlei; test: Antimicrobial activity against Mycobacterium phlei; type: functional
[9] = test system: Micrococcus luteus; test: Antimicrobial activity against Micrococcus luteus; type: functional
[10] = test system: Mycolicibacterium smegmatis; test: Antimicrobial activity against Mycobacterium smegmatis; type: functional
[11] = test system: Bacillus subtilis; test: Antimicrobial activity against Bacillus subtilis; type: functional
[12] = test system: Staphylococcus aureus; test: Antimicrobial activity against Staphylococcus aureus; type: functional
[13] = test system: Bacillus anthracis; test: Antimicrobial activity against Bacillus anthracis; type: functional
[14] = test system: Bacillus cereus; test: Antimicrobial activity against Bacillus cereus; type: functional

SMILES | Activity [1] | Activity [2] | Activity [3] | Activity [4] | Activity [5] | Activity [6] | Activity [7] | MIC [8] [µg/mL] | MIC [9] [µg/mL] | MIC [10] [µg/mL] | MIC [11] [µg/mL] | MIC [12] [µg/mL] | MIC [13] [µg/mL] | MIC [14] [µg/mL]
C=C[C@@]1(C)CC[C@@H]2[C@@]3(C)CCCC(C)(C)[C@@H]3[C@@H](OC(C)=O)C[C@@]2(C)O1 | inactive | inactive | inactive | inactive | inactive | inactive | inactive |  |  |  |  |  |  | 
C=C[C@@]1(C)CC[C@@H]2[C@@]3(C)CCCC(C)(C)[C@@H]3[C@@H](OC(=O)CC(=O)OCCCC)C[C@@]2(C)O1 | inactive | inactive | inactive | inactive | inactive | inactive | inactive |  |  |  |  |  |  | 
CC[C@H]1OC(=O)[C@H](C)[C@@H](O[C@H]2C[C@@](C)(OC)[C@@H](O)[C@H](C)O2)[C@H](C)[C@@H](O[C@@H]2O[C@H](C)C[C@H](N(C)C)[C@H]2O)[C@](C)(OC)C[C@@H](C)C(=O)[C@H](C)[C@@H](O)[C@]1(C)O [CLARITHROMYCIN] |  |  |  |  |  |  |  | 0.5 (≈ 0.668 µM) | 2 (≈ 2.67 µM) | 0.5 (≈ 0.668 µM) | 1.7 (≈ 2.27 µM) | 0.8 (≈ 1.07 µM) | 1.3 (≈ 1.74 µM) | 
C=C[C@@]1(C)CC[C@@H]2[C@@]3(C)CCCC(C)(C)[C@@H]3[C@@H](OC(=O)CC(=O)O)C[C@@]2(C)O1 |  |  |  |  |  |  |  | 9 (≈ 22.9 µM) | 17 (≈ 43.3 µM) | 7 (≈ 17.8 µM) | 15 (≈ 38.2 µM) | 15 (≈ 38.2 µM) | 20 (≈ 51 µM) | 15 (≈ 38.2 µM)
